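48-hour exposure; five concentrations; linearly interpolated endpoints. At the TGI there is no net growth.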
Legend:
Assay in all cases: DTP human tumour cell line panel, 48 h
[1] = test system: 786-0 renal
[2] = test system: A498 renal
[3] = test system: A549 NSCLC
[4] = test system: ACHN renal
[5] = test system: BT-549 breast
[6] = test system: CAKI-1 renal
[7] = test system: CCRF-CEM leukemia
[8] = test system: COLO 205 colon
[9] = test system: DLD-1 colon
[10] = test system: DMS 114 small cell lung
[11] = test system: DMS 273 small cell lung
[12] = test system: DU-145 prostate
[13] = test system: EKVX NSCLC
[14] = test system: HCC-2998 colon
[15] = test system: HCT-116 colon
[16] = test system: HCT-15 colon
[17] = test system: HL-60(TB) leukemia
[18] = test system: HOP-18 NSCLC
[19] = test system: HOP-62 NSCLC
[20] = test system: HOP-92 NSCLC
[21] = test system: HS 578T breast
[22] = test system: HT29 colon
[23] = test system: IGROV1 ovarian
[24] = test system: K-562 leukemia
[25] = test system: KM12 colon
[26] = test system: KM20L2 colon
[27] = test system: LOX IMVI melanoma
[28] = test system: LXFL 529 NSCLC
[29] = test system: M14 melanoma
[30] = test system: M19-MEL melanoma
[31] = test system: MALME-3M melanoma
[32] = test system: MCF7 breast
[33] = test system: MDA-MB-231 breast
[34] = test system: MDA-N
[35] = test system: MOLT-4 leukemia
[36] = test system: NCI-H226 lung
[37] = test system: NCI-H23 lung
[38] = test system: NCI-H460 lung
[39] = test system: NCI-H522 lung
[40] = test system: NCI/ADR-RES ovarian
[41] = test system: OVCAR-3 ovarian
[42] = test system: OVCAR-4 ovarian
[43] = test system: OVCAR-5 ovarian
[44] = test system: OVCAR-8 ovarian
[45] = test system: RPMI-8226 leukemia
[46] = test system: RXF 393 renal
[47] = test system: RXF-631 renal
[48] = test system: SF-268 CNS
[49] = test system: SF-295 CNS
[50] = test system: SF-539 CNS
[51] = test system: SK-MEL-2 melanoma
[52] = test system: SK-MEL-28 melanoma
[53] = test system: SK-MEL-5 melanoma
[54] = test system: SK-OV-3 ovarian
[55] = test system: SN12C renal
[56] = test system: SNB-19 CNS
[57] = test system: SNB-75 CNS
[58] = test system: SNB-78 CNS
[59] = test system: SR leukemia
[60] = test system: SW-620 colon
[61] = test system: T-47D breast
[62] = test system: TK-10 renal
[63] = test system: U251 CNS
[64] = test system: UACC-257 melanoma
[65] = test system: UACC-62 melanoma
[66] = test system: UO-31 renal
[67] = test system: XF 498 CNS

For `COc1ccccc1/C=C1\CCC(Cc2ccccc2)(CN(C)C)C1=O` (configuration not stated), the TGI [1] was 23.4 µM, the TGI [2] was 27.6 µM and the TGI [3] was > 100 µM. For the same compound, the TGI [4] was > 100 µM, the TGI [5] was 40.5 µM and the TGI [6] was 51.8 µM. The TGI [7] was 24.4 µM, the TGI [8] was 7.82 µM and the TGI [9] was > 80.4 µM. The TGI [10] was > 36.2 µM, the TGI [11] was 2.48 µM and the TGI [12] was > 100 µM. It also gave a TGI [13] of 34.7 µM, a TGI [14] of 24.3 µM and a TGI [15] of 39.4 µM. The TGI [16] was 14.4 µM, the TGI [17] was 15.1 µM and the TGI [18] was > 100 µM. For the same compound, the TGI [19] was > 69 µM, the TGI [20] was 66.2 µM and the TGI [21] was > 100 µM. The TGI [22] was 5.55 µM, the TGI [23] was > 41.2 µM and the TGI [24] was > 34.5 µM. It also gave a TGI [25] of 15.9 µM, a TGI [26] of 2.34 µM and a TGI [27] of 29.4 µM. For the same compound, the TGI [28] was > 52.3 µM, the TGI [29] was 34.9 µM and the TGI [30] was > 58.9 µM. The TGI [31] was > 100 µM, the TGI [32] was 25.6 µM and the TGI [33] was 46.7 µM. The TGI [34] was 3.12 µM, the TGI [35] was 38.9 µM and the TGI [36] was 80.4 µM. The TGI [37] was > 100 µM, the TGI [38] was 12.8 µM and the TGI [39] was 2.1 µM. The TGI [40] was > 100 µM, the TGI [41] was 15.3 µM and the TGI [42] was > 100 µM. For the same compound, the TGI [43] was > 81.9 µM, the TGI [44] was 22.9 µM and the TGI [45] was 39.1 µM. For the same compound, the TGI [46] was 51 µM, the TGI [47] was 9.92 µM and the TGI [48] was > 100 µM. The TGI [49] was > 63.1 µM, the TGI [50] was 5.89 µM and the TGI [51] was 34.8 µM. For the same compound, the TGI [52] was > 100 µM, the TGI [53] was 11.9 µM and the TGI [54] was > 42.2 µM. The TGI [55] was 50.3 µM, the TGI [56] was > 100 µM and the TGI [57] was > 88.9 µM. The TGI [58] was > 23.2 µM, the TGI [59] was 3.53 µM and the TGI [60] was 35.2 µM. For the same compound, the TGI [61] was > 100 µM, the TGI [62] was > 77.7 µM and the TGI [63] was 45.5 µM. The TGI [64] was > 100 µM, the TGI [65] was > 26.1 µM and the TGI [66] was > 100 µM. The TGI [67] was > 72.6 µM.

Source: PubChem BioAssay (NCI)
